Measured values from US20120003191A1, “VALPROIC ACID, DERIVATIVES, ANALOGUES, AND COMPOSITIONS INCLUDING SAME AND METHODS FOR THEIR THERAPEUTIC USE” (priority 2009, published 2012).

How the values were obtained:
[1] = tested on: α7+/− myotubes; assay: Quantification of apoptosis in myotubes (TUNEL assay); format: cell-based, mouse
Procedure: Differentiating cultures of α7^+/− cells on 1% gelatin-coated Lab-Tek 8-well chamber slides (Nalge-Nunc International) were exposed to 2 mM VPA on day two of differentiation, and fresh VPA in differentiation medium was added every 24 hours. On day eight of differentiation, the DeadEnd Fluorometric TUNEL assay (Promega) was used to label apoptotic nuclei, following the manufacturer's instructions. The numbers of clusters of apoptotic nuclei in each chamber were counted.

[2] = tested on: α7 integrin; assay: FDG based β-galactosidase fluorescent assay (reporter for α7 expression); format: cell-based, mouse; conditions: 2 mM VPA, 48 hours, α7+/− myotubes from day two of differentiation
Procedure: The α7^+/− mice were derived as reported in Flintoff-Dye, et al. Role for the alpha7beta1 integrin in vascular development and integrity, Dev. Dyn. 234:11-21 (2005). These mice were engineered to contain the LacZ gene driven by the α7 integrin promoter. Skeletal muscles from the hind limbs (including gastrocnemius-soleus, quadriceps and tibialis anterior) of a 3-week old α7^+/− mouse were removed under sterile conditions, finely minced in Hank's balanced salt solution (HBSS) and incubated in 5 ml of enzyme solution I consisting of 1.5 U/ml collagenase D (0.15 U/mg powder, from Roche Diagnostics, Indianapolis, Ind.), 2.4 U/ml dispase II (neutral protease, grade II, 0.8 U/mg powder, from Roche Diagnostics) and 2.5 mM calcium chloride for 30 minutes at 37° C. with trituration every 5 minutes. The supernatant was decanted into 5 ml of 20% fetal bovine serum (FBS) (Biomeda Corporation, Foster City, Calif.) in HBSS. Enzyme solution II consisting of 0.6 mg/ml trypsin (stock solution 0.5%, from Invitrogen) in HBSS was added to the remaining muscle fragments, incubated for 30 minutes as above, and the cell suspensions were pooled. […] The fluorescence in each well was quantified using an Analyst plate reader (Molecular Devices, Sunnyvale, Calif.).

[3] = tested on: α7A integrin; assay: Western blotting of α7A integrin in α7+/− myotubes; format: cell-based, mouse; conditions: 2 mM VPA for 72 hours
Procedure: α7^+/− myogenic cells were cultured on 1% gelatin-coated plastic plates in Ham's F-10 growth medium (20% FBS, 0.5% chick embryo extract, 5 ng/ml bFGF, 2 mM glutamine, 100 U/ml penicillin and 100 μg/ml streptomycin). After six passages, cells were grown in DMEM containing 20% FBS, 0.5% chick embryo extract, 2 mM glutamine, 100 U/ml penicillin and 100 μg/ml streptomycin. Differentiation was induced by switching the medium to DMEM containing 2% horse serum and antibiotics when cells attained 90% confluence. After 48 hours of differentiation, 2 mM VPA was added and supplied fresh every 24 hours. Wortmannin was used at 100 nM and added fresh every 24 hours.
Cell lysates of differentiating cells on 60 mm dishes were prepared as follows: the cells were washed twice with PBS and 200 μl Triton X-100 lysis buffer (2% Triton X-100, 20 mM Tris-Cl, pH 7.4, 150 mM NaCl, 1 mM EDTA, 1 mM EGTA, 2.5 mM NaPPi, 1 mM β-glycerophosphate, 1 mM sodium vanadate, 1:200 Protease Inhibitor Cocktail (EMD Chemicals, San Diego, Calif.) and 1 mM PMSF) were added. […] Protein concentrations were determined by the Bradford assay. […] The supernatants were collected and protein concentrations were determined spectrophotometrically at OD260 and OD280. […] ImageQuant analysis software (Molecular Dynamics, Sunnyvale, Calif.) was used to quantify band intensity.

[4] = humans; cited from earlier work

CCCC(CCC)C(=O)O [VPA, valproic acid]
fewer apoptotic nuclei (TUNEL positive nuclear clusters) compared with control cells ([1]; 2 mM VPA from day 2 of differentiation, day 6 of treatment): greater than 5 fold
appearance of cultures after day 8 (controls vacuolated, some detachment) ([1]; 2 mM VPA, phase-contrast): appeared relatively normal
β-galactosidase activity (reporter for α7 expression), highest level [2]: 1.4 fold
α7A integrin isoform increase [3]: 2 fold
half life [4]: approximately 14 hours
